Measurements taken from PMC7998250, “Temperate Zone Plant Natural Products—A Novel Resource for Activity against Tropical Parasitic Diseases” (Pharmaceuticals, 2021).
Where two headings read alike, the source gives them in different places.

How the values were obtained:
[1] = tested on: L. mexicana axenic amastigotes; experiment: Initial screen, L. mexicana axenic amastigotes, Alamar Blue; assay type: cell-based, Leishmania mexicana
Description: (§1) 634 compounds from the PhytoQuest Phytopure temperate plant natural product library were screened for growth inhibitory activity against L. mexicana axenic amastigotes, T. brucei bloodstream form, intraerythrocytic asexual P. falciparum (at 2 μM) and T. evansi bloodstream form parasites (at 1 μM). […] Our initial hits were defined as reducing growth of the parasite by ≥50%. […]
(§2) The PhytoQuest Phytopure library is a commercially available collection of purified compounds isolated predominantly from temperate zone plants, with structures confirmed by NMR and mass spectrometry. The library was provided as 634 non-polar compounds (1 mg/mL in DMSO). Initial screening was performed in a 96-well plate with 200 μL of parasite culture. The initial screen used each compound at a final concentration of 2 μM for L. mexicana axenic amastigotes, T. brucei and P. falciparum, and at 1 μM for T. evansi. L. mexicana axenic amastigotes were plated at 1 × 10^6 cells/mL, incubated for 72 h, and the Alamar Blue assay was used to assess parasite growth. Each compound was tested in triplicate, with two biological replicates (n = 6). T. brucei and T. evansi were plated at 1×10^5 cells/mL for 48 h, and the Alamar Blue assay was used to assess parasite growth. Each compound was tested in triplicate with two biological replicates (n = 6). Intraerythrocytic P. falciparum in the trophozoite stage were seeded at 0.5% parasitaemia and 2% haematocrit for 48 h, and the Malaria SYBR-Green I fluorescence assay was used to assess parasite growth. Each compound was tested in duplicate with two biological replicates (n = 4). Negative controls comprised an equivalent volume of DMSO (equivalent of 1% v/v) to normalise the growth data. Data points >100% growth and <0% growth were tabulated as 100% and 0%, respectively. Some compounds were not tested in all parasite lines as there was insufficient material remaining.

[2] = tested on: P. falciparum Dd2Luc intraerythrocytic trophozoites; experiment: Initial screen, intraerythrocytic P. falciparum, Malaria SYBR-Green I fluorescence assay; assay type: cell-based, Plasmodium falciparum
Description: as §1, §2

[3] = tested on: T. brucei bloodstream form; experiment: Initial screen, T. brucei bloodstream form, Alamar Blue; assay type: cell-based, Trypanosoma brucei brucei; conditions: for activity at 2 µM / inhibition of growth at 2 µM: Trypanosoma brucei; for activity at 2 µM: initial screen; for initial hit against T. brucei / inhibition of growth at 2 µM: 2 μM; for initial hit against T. brucei: growth reduced by ≥50%; for inhibition of growth at 2 µM: x = initial hit, read-out: initial hit T.b
Description: (§3) 634 compounds from the PhytoQuest Phytopure temperate plant natural product library were screened for growth inhibitory activity against L. mexicana axenic amastigotes, T. brucei bloodstream form, intraerythrocytic asexual P. falciparum (at 2 μM) and T. evansi bloodstream form parasites (at 1 μM). […] Our initial hits were defined as reducing growth of the parasite by ≥50%.
(§4) L. mexicana strain MNYC/BZ/62/M379 and L. donovani strain LdBOB (a clonal line from strain MHOM/SD/62/1S-CL2) were maintained in vitro in the procyclic promastigote stage. Parasites were cultivated at 26 °C in Schneider’s medium (Gibco) pH 7.0 containing 10% FBS, 100 U/mL penicillin (Lonza) and 100 μg/mL streptomycin (Lonza) as previously described. Differentiation into axenic amastigotes was performed as described previously. Briefly, axenic amastigotes were cultivated at 32 °C in Schneider’s medium pH 5.5 containing 10% FBS, 100 U/mL penicillin (Lonza) and 100 μg/mL streptomycin (Lonza). Bloodstream form T. brucei brucei strain Lister 427 and T. evansi strain Antat 3/3 [59] were maintained in vitro at 37 °C with 5% (v/v) CO2 in HMI-11 medium supplemented with 10% FBS, as described elsewhere. Intraerythrocytic cultures of P. falciparum Dd2^Luc strain [62] were maintained at 37 °C in a 1% O2:3% CO2:96% N2 atmosphere in RPMI-1640 containing 37.5 mM HEPES, 5 mM NaOH, 10 mM D-glucose, 2 mM L-glutamine, 100 μM hypoxanthine, […] gentamicin sulfate, 5% human serum and 5% albumax-II and 2% haematocrit erythrocytes. When required, cultures were synchronised to ring stages using the sorbitol lysis method. Preliminary cytotoxicity screening was assessed using HepG2 cells. These cells were maintained in vitro at 37 °C with 5% (v/v) CO2 in DMEM (Sigma) pH 7 supplemented with 10% FBS, 100 U/mL penicillin (Lonza) and 100 μg/mL streptomycin (Lonza), as previously described. The human monocyte cell line THP-1 [68] was maintained in vitro by culturing at 37 °C with 5% (v/v) CO2 in complete RPMI medium (Dutch modified RPMI-1640 (Gibco) containing 10% FBS and 2 mM L-glutamine (Gibco)). Differentiation of THP-1 cells into macrophages was performed by seeding 2.5 × 10^5 cells/mL in complete RPMI media, supplemented with 20 ng/mL phorbol 12-myristate 13-acetate (PMA), followed by incubation at 37 °C with 5% (v/v) CO2 for 24 h.
as §2, with “The” for “The PhytoQuest Phytopure library is a commercially available collection of purified compounds isolated predominantly from temperate zone plants, with structures confirmed by NMR and mass spectrometry. The”

[4] = tested on: T. evansi bloodstream form; experiment: Initial screen, T. evansi bloodstream form, Alamar Blue; assay type: cell-based, Trypanosoma evansi; conditions: Trypanosoma evansi; for activity at 1 µM: initial screen; for inhibition of growth at 1 µM: x = initial hit, read-out: initial hit T.e
Description: as §3, §4
as §2, with “The” for “The PhytoQuest Phytopure library is a commercially available collection of purified compounds isolated predominantly from temperate zone plants, with structures confirmed by NMR and mass spectrometry. The”

in vitro = conditions: human, pH 7, HepG2 CC50
Excerpt: Initial hits from the parasite panel screen were taken forward in log concentration versus normalised response assays to estimate the half maximal effective concentration (EC50) in hit species as well as the half maximal cytotoxic concentrations (CC50) in the human hepatoma cell line HepG2 as a preliminary test for selectivity. Using CC50/EC50 to define the selectivity index (SI), the selectivity for each compound in a defined species compared to a human cell line was estimated and compared to the EC50 (Figure 3).
as §4
EC50 values were determined by serial two-fold dilution of each compound in 96 well plates. Culture conditions and viability assays were as stated for the initial screen, with some exceptions. L. mexicana and L. donovani axenic amastigotes were seeded at 2 × 10^6 cell/s mL, T. brucei and T. evansi were seeded at 2 × 10^5 cells/mL. For cytotoxicity studies, HepG2 cells were seeded at 1 × 10^5 cells/mL, incubated for 48 h and viability was assessed using the Alamar Blue assay. Differentiated THP-1 cells were seeded at 5 × 10^4 cells/mL, incubated for 48 h, and viability was assessed by the Alamar Blue assay. Normalised growth and viability data (compared to untreated controls) were plotted against Log10 concentration to estimate EC50 in GraphPad (Prism v6). Bioluminescence relative rate of kill assays in asexual intraerythrocytic P. falciparum Dd2^Luc were carried out as described.

T. brucei = experiment: Concentration-response EC50, T. brucei; assay type: cell-based, Trypanosoma brucei brucei; conditions: Trypanosoma brucei, 48 h, bloodstream form, 48 h; read-out: T. brucei EC50
Description: EC50 values were determined by serial two-fold dilution of each compound in 96 well plates. Culture conditions and viability assays were as stated for the initial screen, with some exceptions. L. mexicana and L. donovani axenic amastigotes were seeded at 2 × 10^6 cell/s mL, T. brucei and T. evansi were seeded at 2 × 10^5 cells/mL. For cytotoxicity studies, HepG2 cells were seeded at 1 × 10^5 cells/mL, incubated for 48 h and viability was assessed using the Alamar Blue assay [66, 67]. […] Normalised growth and viability data (compared to untreated controls) were plotted against Log10 concentration to estimate EC50 in GraphPad (Prism v6).

[5] = Leishmania mexicana, read-out: % growth L. mexicana, mean % growth compared to a normalised control with same concentration of DMSO solvent, initial screen
[6] = Plasmodium falciparum, 48 h, read-out: %growth P. falciparum, mean % growth compared to a normalised control with same concentration of DMSO solvent, initial screen
[7] = mean % growth compared to a normalised control with same concentration of DMSO solvent, read-out: % growth T. b. brucei
[8] = mean % growth compared to a normalised control with same concentration of DMSO solvent, read-out: % growth T. evansi
[9] = Leishmania mexicana, read-out: mean % growth, L. mexicana, initial screen, compared to a normalised control with same concentration of DMSO solvent
[10] = Plasmodium falciparum, 48 h, read-out: mean % growth, P. falciparum, initial screen, compared to a normalised control with same concentration of DMSO solvent
[11] = compared to a normalised control with same concentration of DMSO solvent, read-out: mean % growth, T. b. brucei
[12] = compared to a normalised control with same concentration of DMSO solvent, read-out: mean % growth, T. evansi

SMILES	activity at 2 µM [1, 5]	activity at 2 µM [2, 6]	inhibition of growth at 2 µM ([2]; Plasmodium falciparum, 48 h, read-out: initial hit P.f)	activity at 2 µM [3, 7]	activity at 1 µM [4, 8]	decrease of L. mexicana survival ([1]; 2 μM, 72 h)	activity against P. falciparum in screen ([2]; 2 μM)	initial hit against T. brucei [3]	inhibition of growth at 2 µM [3]	CC50 at 48 h (in vitro)	EC50 (T. brucei)	inhibition of growth at 1 µM [4]	activity at 2 µM [1, 9]	activity at 2 µM [2, 10]	activity at 2 µM [3, 11]	activity at 1 µM [4, 12]	initial hit against L. mexicana ([1]; 2 μM, growth inhibited by ≥80%)	inhibition of growth at 2 µM ([1]; Leishmania mexicana, 2 μM, x = initial hit, read-out: initial hit L.m)
CC(=O)OC1C(O)C(C)OC(OC2C(OC(=O)C3C[C@@H]4OC5(CC(OC(=O)/C=C/c6ccccc6)[C@@H](C)CO5)C(O)(CO)[C@@H]4CO3)OC(C)C(O)C2OC(C)=O)C1O (single isomer, unassigned) [Compound 700047]	60%	41.8%	> 50%	61%	90.2%	–	–	–	–	–	–	–	–	–	–	–	–	–
CC(C)c1ccc2c(c1)CCC1C(C)(C=O)CCCC21C (stereo not shown) [Compound 700014]	56.9%	107%	–	25.2%	93%	~70%	neither 700014 or 700063 showed activity against P. falciparum	initial hits	> 50%	40 µM	1.1 µM	–	–	–	–	–	–	–
CC(C)c1ccc2c(c1)CCC1C(CCCC1C(=O)O)O2 (stereo not shown) [Compound 700110]	52.4%	105%	–	87.2%	47.9%	–	–	–	–	–	–	> 50%	–	–	–	–	–	–
C/C1=C\C2OC(=O)C(=O)C2CC/C(C(=O)OC2OC(CO)C(O)C(O)C2O)=C\CC1 (stereo not shown) [Compound 700458]	–	–	–	–	–	–	–	–	–	–	–	> 50%	48.5%	119%	78.2%	48.2%	–	–
O=C1C=CC(O)(c2cc(=O)c3c(O)cc(O)cc3o2)C=C1 [Compound 700586]	–	–	–	–	–	–	–	initial hits	> 50%	3.6 µM	0.63 µM	–	56.5%	77%	3.1%	–	–	–
COc1cc2ccc(=O)oc2c(OC)c1OCC1C(C)=CCC2C(C)(C)C(O)CCC12C (stereo not shown) [Compound 700867]	–	–	–	–	–	–	–	initial hits	> 50%	27 µM	2.6 µM	–	60.7%	104%	19.3%	126%	–	–
CC(C)C(=O)OC1C2C(CC(C)C3C=CC(=O)C31C)OC(=O)C2C (stereo not shown) [Compound 701156]	–	–	–	–	–	–	–	initial hits	> 50%	–	0.99 µM	–	52.7%	93.7%	24.3%	113%	–	–
C#CC#CCc1ccccc1C(=O)OC [Compound 701248]	–	–	–	–	–	–	–	–	–	–	–	–	19.2%	100%	60.9%	–	initial hits	> 80%
